# Results reported in BindingDB's records for patent US20250313563 (The Broad Institute, 2025).
# “And” between values parts separate entries of the source, which are not always exact repeats. Equal entries are not always repeated.
# Columns and labels:
# [1] = molecular target: Glycogen synthase kinase-3 beta (Homo sapiens, UniProt P49841); assay: TR-FRET Assay
# How it was run: (§1)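 Compound was preincubated 30 min in assay buffer before the kinase reaction, which was quenched with EDTA. Phosphorylation was detected by TR-FRET after adding a solution of 40 nM streptavidin-d2 and 2 nM Tb-labelled anti-pSer641 antibody.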
# [2] = molecular target: Glycogen synthase kinase-3 alpha (Homo sapiens, UniProt P49840); assay: TR-FRET Assay
# How it was run: as §1
# Chain of Glycogen synthase kinase-3 alpha (P49840 whole entry): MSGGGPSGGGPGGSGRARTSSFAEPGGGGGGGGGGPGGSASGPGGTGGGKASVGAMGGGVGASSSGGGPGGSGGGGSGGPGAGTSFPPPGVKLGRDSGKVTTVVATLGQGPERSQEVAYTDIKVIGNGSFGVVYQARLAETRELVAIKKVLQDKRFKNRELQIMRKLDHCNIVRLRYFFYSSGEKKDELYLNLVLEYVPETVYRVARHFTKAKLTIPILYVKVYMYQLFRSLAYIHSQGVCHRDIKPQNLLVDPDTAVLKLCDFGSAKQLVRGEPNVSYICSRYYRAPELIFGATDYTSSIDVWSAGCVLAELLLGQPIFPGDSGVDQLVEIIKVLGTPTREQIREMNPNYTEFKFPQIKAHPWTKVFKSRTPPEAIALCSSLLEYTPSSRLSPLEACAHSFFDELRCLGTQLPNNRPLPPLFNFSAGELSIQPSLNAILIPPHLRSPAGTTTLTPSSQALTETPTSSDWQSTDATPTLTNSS
# Chain of Glycogen synthase kinase-3 beta (P49841 whole entry): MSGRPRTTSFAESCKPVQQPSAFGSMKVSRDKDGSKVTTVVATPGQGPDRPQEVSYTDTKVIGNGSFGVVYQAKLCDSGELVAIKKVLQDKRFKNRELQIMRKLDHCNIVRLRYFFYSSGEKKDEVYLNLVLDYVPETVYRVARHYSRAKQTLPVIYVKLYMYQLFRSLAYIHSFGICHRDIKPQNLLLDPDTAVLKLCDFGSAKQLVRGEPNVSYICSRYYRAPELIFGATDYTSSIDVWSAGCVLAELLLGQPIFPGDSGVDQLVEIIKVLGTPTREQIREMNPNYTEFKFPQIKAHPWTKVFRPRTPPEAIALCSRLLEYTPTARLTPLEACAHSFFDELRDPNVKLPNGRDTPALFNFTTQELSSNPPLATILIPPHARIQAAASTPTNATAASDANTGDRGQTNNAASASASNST
IC50 [1],IC50 [2],SMILES
< 100 nM,< 100 nM,"Cc1ccccc1CC(=O)N1CC2(C1)CC1(CO2)C2=C(N=NC2)NC2=C1C(=O)CC(C)(C)C2 (stereo unspecified) [US20250313563, Compound 947295]"
1000 to 5000 nM,100 to 1000 nM,"CC[C@]1(c2cccc(S(=O)(=O)C(C)C)c2)C2=CN=NC2NC2=C1C(=O)CC(C)(C)C2 (stereo partly specified) [US20250313563, Compound 913134]"
1000 to 5000 nM,100 to 1000 nM,"CC(=O)N1CC[C@@]2(C1)C1=C(N=NC1)NC1=C2C(=O)CC(C)(C)C1 [US20250313563, Compound 889584]"
> 5000 nM,1000 to 5000 nM,"CC[C@]1(c2cccc(-c3ccncc3C(F)(F)F)c2)C2=CN=NC2NC2=C1C(=O)NC(C)(C)C2 (stereo partly specified) [US20250313563, Compound 949516]"
< 100 nM,< 100 nM,"CCC1(c2cccc(-c3ccnc(C)c3)c2)C2=C(CC(C)(C)NC2=O)NC2N=NC(C(F)(F)F)=C21 (stereo unspecified) [US20250313563, Compound 947858]"
100 to 1000 nM,100 to 1000 nM,"C[C@@H]1C[C@H](C)C[C@@]2(C1)C1=C(N=NC1)NC1=C2C(=O)CC(C)(C)C1 [US20250313563, Compound 884114]"
< 100 nM,< 100 nM,"CC[C@]1(c2cccc(S(=O)(=O)C(C)C)c2)C2=C(CC(C)(C)NC2=O)NC2N=NC(C(F)(F)F)=C21 (stereo partly specified) [US20250313563, Compound 948419]"
100 to 1000 nM,< 100 nM,"CC[C@@]1(c2cccc(N(C)c3cccc(OC)n3)c2)C2=CN=NC2NC2=C1C(=O)CC(C)(C)C2 (stereo partly specified) [US20250313563, Compound 932666]"
1000 to 5000 nM,100 to 1000 nM,"C[C@@H]1C[C@@]2(CCO1)C1=C(N=NC1)NC1=C2C(=O)CC(C)(C)C1 [US20250313563, Compound 899559]"
1000 to 5000 nM,100 to 1000 nM,"CC[C@]1(c2cccc(-c3ccncc3F)c2)C2=CN=NC2NC2=C1C(=O)NC(C)(C)C2 (stereo partly specified) [US20250313563, Compound 947874]"
100 to 1000 nM,< 100 nM,"CCC1(c2cccc(-c3ccnc(C)c3)c2)C2=C(CC(C)(C)NC2=O)NC2N=NC(C)=C21 (stereo unspecified) [US20250313563, Compound 947798]"
100 to 1000 nM,< 100 nM,"CCC1(c2cccc(-c3cn(C)nc3C(C)C)c2)C2=C(CC(C)(C)CC2=O)NC2N=NC(C)=C21 (stereo unspecified) [US20250313563, Compound 883998]"
< 100 nM,< 100 nM,"CC[C@]1(c2cccc(S(=O)(=O)C3CC3)c2)C2=C(CC(C)(C)CC2=O)NC2N=NC(C(F)(F)F)=C21 (stereo partly specified) [US20250313563, Compound 945715]"
100 to 1000 nM,100 to 1000 nM,"CC[C@]1(c2cccc(-c3cc(C)nn3-c3ccccc3)c2)C2=CN=NC2NC2=C1C(=O)NC(C)(C)C2 (stereo partly specified) [US20250313563, Compound 951845]"
< 100 nM,< 100 nM,"CCC1(c2cccc(-c3cc(C)nnc3C)c2)C2=C(CC(C)(C)NC2=O)NC2N=NC(C)=C21 (stereo unspecified) [US20250313563, Compound 948765]"
< 100 nM,< 100 nM,"Cc1cc(S(=O)(=O)N2CCC3(CC2)C2=CN=NC2NC2=C3C(=O)CC(C)(C)C2)ccc1Cl (stereo unspecified) [US20250313563, Compound 947475]"
< 100 nM,< 100 nM,"CC[C@]1(c2cccc(N3CCOCC3)c2)C2=C(CC(C)(C)CC2=O)NC2N=NC(C(F)(F)F)=C21 (stereo partly specified) [US20250313563, Compound 816885]"
100 to 1000 nM,< 100 nM,"CC1(C)CC(=O)C2=C(C1)NC1=C(CN=N1)C21CC(C(F)(F)F)C1 (stereo unspecified) [US20250313563, Compound 874527]"
> 5000 nM,> 5000 nM,"CC[C@@]1(c2cccc(-c3ccnc(O)c3)c2)C2=CN=NC2NC2=C1C(=O)CC(C)(C)C2 (stereo partly specified) [US20250313563, Compound 943993]"
100 to 1000 nM,< 100 nM,"CCC1(c2cccc(N(C)c3ccncn3)c2)C2=CN=NC2NC2=C1C(=O)CC(C)(C)C2 (stereo unspecified) [US20250313563, Compound 902970]"
> 5000 nM,1000 to 5000 nM,"CC[C@@]1(c2cccc(C(F)(F)F)c2)C2=C(N=NC2)NC2=C1C(=O)N(Cc1ccccc1)C2 [US20250313563, Compound 929389]"
1000 to 5000 nM,< 100 nM,"CCC1(c2cccc(Cc3ncccn3)c2)C2=CN=NC2NC2=C1C(=O)NC(C)(C)C2 (stereo unspecified) [US20250313563, Compound 950151]"
100 to 1000 nM,100 to 1000 nM,"C[C@H]1CC(=O)C2=C(C1)NC1=C(CN=N1)C21CCOCC1 [US20250313563, Compound 912078]"
> 5000 nM,> 5000 nM,"CC[C@@]1(c2cccc(C(F)(F)F)c2)C2=CN=NC2NC2=C1C(=O)N(c1cscn1)CC2 (stereo partly specified) [US20250313563, Compound 952638]"
> 5000 nM,100 to 1000 nM,"CC[C@@]1(c2cccc(-c3cc(C)nn3C)c2)C2=CN=NC2NC2=C1C(=O)CC(C)(C)[C@H]2F (stereo partly specified) [US20250313563, Compound 947656]"
< 100 nM,< 100 nM,"CC1(C)CC(=O)C2=C(C1)NC1=C(CN=N1)C21CCC(S(C)(=O)=O)CC1 (stereo unspecified) [US20250313563, Compound 913356]"
100 to 1000 nM,100 to 1000 nM,"CCC1(c2ccccc2)C2=C(N=NC2)NC2=C1C(=O)CC1(CCC1)C2 (stereo unspecified) [US20250313563, Compound 811555]"

IC50 [1],IC50 [2],SMILES
< 100 nM,< 100 nM,"CC[C@]1(c2cccc(Cc3ncccn3)c2)C2=CN=NC2NC2=C1C(=O)CC(C)(C)C2 (stereo partly specified) [US20250313563, Compound 947498]"
< 100 nM and 100 to 1000 nM,< 100 nM,"COc1ccccc1S(=O)(=O)N1CCC2(CC1)C1=C(N=NC1)NC1=C2C(=O)CC(C)(C)C1 [US20250313563, Compound 893310]"
< 100 nM,< 100 nM,"COCc1ccc(S(=O)(=O)N2CCC3(CC2)C2=C(N=NC2)NC2=C3C(=O)CC(C)(C)C2)cc1 [US20250313563, Compound 947250]"
100 to 1000 nM,< 100 nM,"CCC1(c2cccc(-c3ccnc(C)c3F)c2)C2=CN=NC2NC2=C1C(=O)CC(C)(C)C2 (stereo unspecified) [US20250313563, Compound 918281]"
< 100 nM and 100 to 1000 nM,< 100 nM,"CCC1(c2cccc(-c3cnn(C)c3)c2)C2=C(CC(C)(C)NC2=O)NC2N=NC(C(F)(F)F)=C21 (stereo unspecified) [US20250313563, Compound 947405]"
1000 to 5000 nM,100 to 1000 nM,"CCC1(c2cccc(-c3ccnc(C)n3)c2)C2=CN=NC2NC2=C1C(=O)CC(C)(C)C2 (stereo unspecified) [US20250313563, Compound 948088]"
< 100 nM and 1000 to 5000 nM,< 100 nM,"CC[C@@]1(c2cccc(-c3ccncc3F)c2)C2=CN=NC2NC2=C1C(=O)NC(C)(C)C2 (stereo partly specified) [US20250313563, Compound 947869]"
> 5000 nM,> 5000 nM,"CC1(C)CC(=O)C2=C(C1)NC1=C(CN=N1)C21CCN(c2ccncc2)CC1 [US20250313563, Compound 880765]"
< 100 nM,< 100 nM,"C[C@H]1C[C@@H]2C[C@@]3(C[C@@H]2C1)C1=CN=NC1NC1=C3C(=O)CC(C)(C)C1 (stereo partly specified) [US20250313563, Compound 943896]"
< 100 nM,< 100 nM,"CC[C@@]1(c2cccc(N(C)c3ccccn3)c2)C2=CN=NC2NC2=C1C(=O)CC(C)(C)C2 (stereo partly specified) [US20250313563, Compound 875568]"
> 5000 nM,> 5000 nM,"CC[C@@]1(c2cccc(C(F)(F)F)c2)C2=CN=NC2NC2=C1C(=O)N(C)CC2 (stereo partly specified) [US20250313563, Compound 917283]"
100 to 1000 nM,< 100 nM,"CC[C@]1(c2cccc(Br)c2)C2=CN=NC2NC2=C1C(=O)C[C@@H](C(F)(F)F)C2 (stereo partly specified) [US20250313563, Compound 826653]"
< 100 nM,< 100 nM,"CC1(C)CC(=O)C2=C(C1)NC1=C(CN=N1)[C@]21CC[C@H](c2ccncc2)CC1 [US20250313563, Compound 949321]"
< 100 nM,< 100 nM,"CCC1(c2cccc(-c3cnn(C)c3)c2)C2=C(CC(C)(C)CC2=O)NC2N=NC(C(F)(F)F)=C21 (stereo unspecified) [US20250313563, Compound 801445]"
100 to 1000 nM,< 100 nM,"CCC1(c2cccc(C(F)F)c2)C2=CN=NC2NC2=C1C(=O)NC(C)(C)C2 (stereo unspecified) [US20250313563, Compound 947864]"
100 to 1000 nM,< 100 nM,"Cc1cccc2c1CC[C@@]21C2=C(N=NC2)NC2=C1C(=O)CC(C)(C)C2 [US20250313563, Compound 913136]"
< 100 nM,< 100 nM,"CC1(C)CC(=O)C2=C(C1)NC1=C(CN=N1)C21COC2(CN(C(=O)C(C)(C)F)C2)C1 (stereo unspecified) [US20250313563, Compound 947276]"
< 100 nM,< 100 nM,"CC[C@]1(c2cccc(Br)c2)C2=C(C[C@@H](C)CC2=O)NC2N=NC(C(F)(F)F)=C21 (stereo partly specified) [US20250313563, Compound 828847]"
> 5000 nM,1000 to 5000 nM,"CC[C@]1(c2cccc(S(=O)(=O)C3CC3)c2)C2=CN=NC2NC2=C1C(=O)N(C)C(C)(C)C2 (stereo partly specified) [US20250313563, Compound 949184]"
100 to 1000 nM,< 100 nM,"CC[C@]1(c2cccc(-c3cnn(C)c3C)c2)C2=C(CC(C)(C)NC2=O)NC2N=NC(C(F)(F)F)=C21 (stereo partly specified) [US20250313563, Compound 947807]"
100 to 1000 nM,100 to 1000 nM,"COc1ccc(S(=O)(=O)N2CCC3(CC2)C2=C(N=NC2)NC2=C3C(=O)CC(C)(C)C2)cc1 [US20250313563, Compound 901469]"
1000 to 5000 nM,100 to 1000 nM,"CC[C@@]1(c2cccc(N(C)c3ccnnc3)c2)C2=CN=NC2NC2=C1C(=O)CC(C)(C)C2 (stereo partly specified) [US20250313563, Compound 915630]"
< 100 nM,< 100 nM,"CC1(C)CC(=O)C2=C(C1)NC1=C(CN=N1)C21CCN(S(=O)(=O)c2ccc(C(F)(F)F)cc2)CC1 [US20250313563, Compound 947256]"
< 100 nM,< 100 nM,"CCC1(c2cccc(S(=O)(=O)C(C)C)c2)C2=CN=NC2NC2=C1C(=O)CC(C)(C)C2 (stereo unspecified) [US20250313563, Compound 912169]"
> 5000 nM,100 to 1000 nM,"CCC1(c2cccc(C(F)(F)F)c2)C2=CN=NC2NC2=C1C(=O)N(c1ncn(C)c1C)CC2 (stereo unspecified) [US20250313563, Compound 951598]"
1000 to 5000 nM,< 100 nM,"CCC1(c2cccc(-c3cnnc(C)c3)c2)C2=CN=NC2NC2=C1C(=O)NC(C)(C)C2 (stereo unspecified) [US20250313563, Compound 943496]"
